One experiment concerns the target T1, NTRK1 (Homo sapiens, UniProt P04629).
T1 construct: expressed in transfected cells
The experiment in a line: NGF-mediated induction of EGR genes in TE-7 cells stably expressing NTRK1, with tyrosine kinase inhibitors. Particulars: TE-7 epithelial cells, NGF stimulation. It counts as cell-based. An excerpt: In order to further investigate the functional link between IL-13 and NGF signaling we generated two pools of TE-7 cells stably expressing NTRK1 that allowed us to simultaneously induce IL-13 and NGF/NTRK1 responses.
We further hypothesized that inhibition of NTRK1 kinase activity will prevent induction of EGR genes following NGF stimulation. To test this hypothesis we utilized two tyrosine kinase inhibitors lestaurtinib (CEP-701) and crizotinib that were previously reported as efficient blockers of NTRK1 auto-phosphorylation and downstream signaling.

Experiment [1] has as its system NTRK1 expression in esophageal biopsies. The experiment in a line: RT-PCR analysis of NTRK1 in esophageal biopsies of EoE patients after swallowed steroid treatment. It is filed as in vivo, human. Particulars: EoE patients who responded to swallowed steroid treatment (FPR, n=13) vs active EoE and controls; FIG. 4A. Here is the method: FIG. 4. NTRK1, NGF, and EGR1 expression in human allergic inflammation. In A, RT-PCR analysis of NTRK1 in biopsies was performed in unaffected control patients (Ctrl, n=13), patients with active EoE (EoE, n=12), and EoE patients who responded to swallowed steroid treatment (fluticasone responders [FPR], n=13); ***p<0.001; ns, not significant. In B and C, the graphs show Pearson correlation of NTRK1 expression with IL-13 levels and peak eosinophil counts in EoE biopsies. […] In E, quantification of NTRK1 in control and active EoE biopsies is shown (n=5 each); *p<0.05. Expression level was normalized to the level of GAPDH. In F, RT-PCR analysis of NGF and CCL26 was performed in control and EoE biopsies (n=10 each); ****p<0.0001; ns, not significant. In G, amount of NGF and CCL26 protein was measured by ELISA in control and active EoE biopsies (n=5 each); *p<0.05; ns, not significant. […] In I, EGR1 mRNA was measured by RT-PCR in esophageal biopsies of unaffected control (Ctrl) patients and patients with active EoE (n=10 each). ***p<0.001. […]
In vitro experiments with epithelial cells prompted us to investigate whether NTRK1 is increased in epithelial cells in vivo during allergic responses. First, we assessed expression of NTRK1 mRNA in esophageal biopsies of control and EoE patients. […]

T1 sequence (P04629 33-796): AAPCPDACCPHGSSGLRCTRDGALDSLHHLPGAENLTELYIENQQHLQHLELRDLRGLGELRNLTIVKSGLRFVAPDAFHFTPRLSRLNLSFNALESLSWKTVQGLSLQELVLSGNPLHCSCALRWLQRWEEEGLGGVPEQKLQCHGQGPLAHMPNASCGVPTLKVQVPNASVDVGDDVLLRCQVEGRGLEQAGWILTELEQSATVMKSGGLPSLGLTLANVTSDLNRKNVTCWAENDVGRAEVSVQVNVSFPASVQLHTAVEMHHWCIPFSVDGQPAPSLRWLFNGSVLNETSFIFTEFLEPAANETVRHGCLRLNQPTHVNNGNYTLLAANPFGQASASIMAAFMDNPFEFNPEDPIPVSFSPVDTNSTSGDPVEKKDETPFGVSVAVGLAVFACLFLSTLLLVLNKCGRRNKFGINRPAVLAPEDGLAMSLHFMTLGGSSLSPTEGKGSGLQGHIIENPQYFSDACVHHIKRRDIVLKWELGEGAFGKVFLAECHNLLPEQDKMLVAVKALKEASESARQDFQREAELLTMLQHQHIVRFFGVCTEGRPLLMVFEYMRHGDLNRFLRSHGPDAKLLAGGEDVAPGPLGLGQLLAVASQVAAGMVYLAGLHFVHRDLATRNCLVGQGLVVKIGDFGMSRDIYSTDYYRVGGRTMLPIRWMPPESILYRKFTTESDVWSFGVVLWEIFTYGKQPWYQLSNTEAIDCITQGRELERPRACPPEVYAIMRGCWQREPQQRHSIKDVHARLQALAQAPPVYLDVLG

With `C[C@@H](Oc1cc(-c2cnn(C3CCNCC3)c2)cnc1N)c1c(Cl)ccc(F)c1Cl` [crizotinib], on NTRK1 (EGR1 mRNA), the “NGF-mediated increase in EGR1 mRNA” value is given as “dramatically reduced”. Besides, the “NGF-mediated increase in EGR3 mRNA” value at NTRK1 (EGR3 mRNA) is recorded as “dramatically reduced”.
For the compound `CCC(=O)O[C@]1(C(=O)SCF)[C@H](C)C[C@H]2[C@@H]3C[C@H](F)C4=CC(=O)C=C[C@]4(C)[C@@]3(F)[C@@H](O)C[C@@]21C` [fluticasone propionate], in experiment [1], the “NTRK1 mRNA expression in esophageal biopsies” value is given as “normalized levels”.

Source of the values: patent US9517238B2, “Compositions and methods for treating allergic inflammation through inhibition of NTRK1” (CHILDREN'S HOSPITAL MEDICAL CENTER, priority 2014, dated 2016).
